Source: patent publication US10421760B2, “Pyrrolo[2,3-d]pyrimidine compound or salt thereof” (TAIHO PHARMACEUTICAL CO., LTD., priority 2015, dated 2019)

Tests used:
[1] = target: purified recombinant human JAK3 protein (Homo sapiens (Human), UniProt P52333); assay: JAK3 kinase-inhibiting activity (mobility shift, LabChip EZ Reader II); type: biochemical; conditions: for IC50: ATP 5 μM, 25° C., 80 minutes
Protocol: 3) Measurement of JAK3 Kinase-Inhibiting Activity
The activity of the compound of the present invention to inhibit the activity of JAK3 kinase was measured.
(§1) Among materials for the measurement of this inhibiting activity, a substrate peptide and a kinase protein were acquired as follows. As such a substrate peptide, a substrate peptide for QSS Assist JAK3-MSA assay kit (Carna Biosciences, Inc.) was purchased. As such a kinase protein, a purified recombinant human JAK3 protein (Carna Biosciences, Inc.) was purchased.
The method for measuring the inhibiting activity is as follows. First, a serial dilution of the compound of the present invention was prepared by the same method as that described in the above section regarding JAK1. This serial dilution solution (the final concentration of DMSO upon a kinase reaction: 5.0%) or DMSO (final concentration: 5.0%) was mixed with a solution comprising the substrate peptide (final concentration: 1 μM), magnesium chloride (final concentration: 5 mM) and ATP (final concentration: 5 μM) in a buffer for kinase reaction (20 mM HEPES (pH 7.5), 2 mM dithiothreitol and 0.01% Triton X-100). Thereafter, a JAK3 protein was further added to the mixed solution, and the obtained mixture was then incubated at 25° C. for 80 minutes to carry out a kinase reaction. To the reaction solution, EDTA was added to a final concentration of 30 mM, so as to terminate the reaction. After termination of the reaction, the measurement and the data analysis were carried out by the same methods as those described in the above section regarding JAK1.

[2] = target: purified recombinant human JAK2 protein (Homo sapiens (Human), UniProt O60674); assay: JAK2 kinase-inhibiting activity (mobility shift, LabChip EZ Reader II); type: biochemical; conditions: ATP 10 μM, 25° C., 80 minutes
purified recombinant human JAK2 protein, sequence (O60674 whole entry): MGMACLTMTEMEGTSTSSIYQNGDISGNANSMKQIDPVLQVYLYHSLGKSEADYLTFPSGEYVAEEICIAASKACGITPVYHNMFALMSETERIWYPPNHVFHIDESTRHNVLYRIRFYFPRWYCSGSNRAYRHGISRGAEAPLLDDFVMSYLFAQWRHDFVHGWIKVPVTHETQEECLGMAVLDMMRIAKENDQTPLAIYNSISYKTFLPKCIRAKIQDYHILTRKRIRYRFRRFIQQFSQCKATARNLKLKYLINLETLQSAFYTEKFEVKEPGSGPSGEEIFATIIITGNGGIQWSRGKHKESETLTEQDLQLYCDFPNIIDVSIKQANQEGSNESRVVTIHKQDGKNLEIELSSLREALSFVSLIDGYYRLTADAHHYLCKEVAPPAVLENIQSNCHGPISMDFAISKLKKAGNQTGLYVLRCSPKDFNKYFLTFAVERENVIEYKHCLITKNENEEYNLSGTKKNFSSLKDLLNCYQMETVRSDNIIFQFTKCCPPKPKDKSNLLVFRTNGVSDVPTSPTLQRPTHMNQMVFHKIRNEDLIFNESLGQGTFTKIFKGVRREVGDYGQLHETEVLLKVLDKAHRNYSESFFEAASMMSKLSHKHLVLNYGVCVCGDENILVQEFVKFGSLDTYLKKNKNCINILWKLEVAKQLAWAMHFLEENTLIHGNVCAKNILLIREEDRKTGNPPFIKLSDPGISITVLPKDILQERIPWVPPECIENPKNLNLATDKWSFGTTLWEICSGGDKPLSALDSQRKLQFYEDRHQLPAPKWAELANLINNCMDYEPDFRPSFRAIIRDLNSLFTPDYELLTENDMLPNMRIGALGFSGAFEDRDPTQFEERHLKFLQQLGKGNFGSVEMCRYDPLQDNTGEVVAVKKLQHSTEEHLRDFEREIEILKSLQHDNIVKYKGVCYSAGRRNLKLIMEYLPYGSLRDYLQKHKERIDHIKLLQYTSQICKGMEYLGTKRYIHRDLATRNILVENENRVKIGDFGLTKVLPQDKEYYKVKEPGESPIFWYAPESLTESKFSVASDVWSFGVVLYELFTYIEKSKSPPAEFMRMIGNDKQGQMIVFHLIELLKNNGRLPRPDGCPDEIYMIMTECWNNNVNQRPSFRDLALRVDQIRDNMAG
Protocol: 2) Measurement of JAK2 Kinase-Inhibiting Activity
The activity of the compound of the present invention to inhibit the activity of JAK2 kinase was measured.
as §1, with “FL-Peptide 22 (Perkin Elmer Corp.)” for “a substrate peptide for QSS Assist JAK3-MSA assay kit (Carna Biosciences, Inc.)”, “JAK2” for “JAK3”
The method for measuring the inhibiting activity is as follows. First, a serial dilution of the compound of the present invention was prepared by the same method as that described in the above section regarding JAK1. This serial dilution solution (the final concentration of DMSO upon a kinase reaction: 5.0%) or DMSO (final concentration: 5.0%) was mixed with a solution comprising the substrate peptide (final concentration: 1 μM), magnesium chloride (final concentration: 10 mM) and ATP (final concentration: 10 μM) in a buffer for kinase reaction (15 mM Tris (pH 7.5), 2 mM dithiothreitol and 0.01% Tween 20). Thereafter, a JAK2 protein was further added to the mixed solution, and the obtained mixture was then incubated at 25° C. for 80 minutes to carry out a kinase reaction. To the reaction solution, EDTA was added to a final concentration of 30 mM, so as to terminate the reaction. After termination of the reaction, the measurement and the data analysis were carried out by the same methods as those described in the above section regarding JAK1.

[3] = target: purified recombinant human JAK1 protein (Homo sapiens (Human), UniProt P23458); assay: JAK1 kinase-inhibiting activity (mobility shift, LabChip EZ Reader II); type: biochemical; conditions: ATP 75 μM, 25° C., 120 minutes
purified recombinant human JAK1 protein, sequence (P23458 whole entry): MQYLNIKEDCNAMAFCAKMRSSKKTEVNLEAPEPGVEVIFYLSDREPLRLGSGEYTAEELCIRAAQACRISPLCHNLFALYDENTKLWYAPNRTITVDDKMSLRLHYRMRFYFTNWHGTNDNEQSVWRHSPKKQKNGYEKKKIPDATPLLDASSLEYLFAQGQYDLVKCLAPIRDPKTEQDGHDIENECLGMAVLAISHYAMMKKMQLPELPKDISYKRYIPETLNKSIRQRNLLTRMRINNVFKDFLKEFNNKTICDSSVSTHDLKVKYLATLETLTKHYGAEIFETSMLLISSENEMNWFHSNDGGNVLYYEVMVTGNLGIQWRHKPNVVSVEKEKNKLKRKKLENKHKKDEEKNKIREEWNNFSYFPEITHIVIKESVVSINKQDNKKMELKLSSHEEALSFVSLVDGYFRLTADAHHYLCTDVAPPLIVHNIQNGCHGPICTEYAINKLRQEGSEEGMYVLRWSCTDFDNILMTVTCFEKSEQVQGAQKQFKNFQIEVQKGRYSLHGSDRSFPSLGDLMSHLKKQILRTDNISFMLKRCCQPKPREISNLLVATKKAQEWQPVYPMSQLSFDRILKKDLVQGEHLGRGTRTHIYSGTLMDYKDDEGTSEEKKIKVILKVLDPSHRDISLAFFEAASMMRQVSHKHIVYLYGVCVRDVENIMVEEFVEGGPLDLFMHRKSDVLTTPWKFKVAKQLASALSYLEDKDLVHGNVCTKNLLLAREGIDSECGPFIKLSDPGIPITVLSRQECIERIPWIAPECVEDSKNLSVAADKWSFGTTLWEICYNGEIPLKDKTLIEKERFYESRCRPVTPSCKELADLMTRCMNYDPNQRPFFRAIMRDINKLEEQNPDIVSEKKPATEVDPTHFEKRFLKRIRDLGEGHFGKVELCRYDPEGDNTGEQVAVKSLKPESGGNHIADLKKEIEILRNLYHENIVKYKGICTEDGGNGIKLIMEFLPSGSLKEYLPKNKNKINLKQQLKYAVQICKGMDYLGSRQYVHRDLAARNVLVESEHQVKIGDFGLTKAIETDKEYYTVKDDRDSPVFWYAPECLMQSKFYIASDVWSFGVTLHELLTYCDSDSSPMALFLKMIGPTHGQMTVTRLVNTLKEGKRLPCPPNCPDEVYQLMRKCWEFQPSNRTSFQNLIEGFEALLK
Protocol: 1) Measurement of JAK1 Kinase-Inhibiting Activity
The activity of the compound of the present invention to inhibit the activity of JAK1 kinase was measured.
as §1, with “JAK1-MSA” for “JAK3-MSA”, “JAK1” for “JAK3”
The method for measuring the inhibiting activity is as follows. First, the compounds of the present invention were each dissolved in dimethyl sulfoxide (DMSO), and a serial dilution was then prepared using DMSO. Subsequently, a serial dilution solution of the compound (the final concentration of DMSO upon a kinase reaction: 5.0%) or DMSO (final concentration: 5.0%) was mixed with a solution comprising the substrate peptide (final concentration: 1 μM), magnesium chloride (final concentration: 5 mM) and ATP (final concentration: 75 μM) in a buffer for kinase reaction (20 mM HEPES (pH 7.5), 2 mM dithiothreitol and 0.01% Triton X-100). Thereafter, a JAK1 protein was further added to the mixed solution, and the obtained mixture was then incubated at 25° C. for 120 minutes to carry out a kinase reaction. To the reaction solution, EDTA was added to a final concentration of 30 mM, so as to terminate the reaction. Finally, using LabChip EZ Reader II (Perkin Elmer Corp.), an unphosphorylated substrate peptide (S) and a phosphorylated peptide (P) were subjected to microchannel capillary electrophoresis, so that the two peptides were separated from each other and were then detected. The amount of a phosphorylation reaction was obtained based on the heights of the peaks of S and P, and the concentration of the compound capable of inhibiting 50% of the phosphorylation reaction was defined as an IC50 value (nM).

human PBMC = assay: IL-2-dependent growth of human peripheral blood mononuclear cells (CellTiter-Glo); type: cell-based; conditions: 48 h, IL-2 2 ng/mL stimulation, 2 days
Protocol: The activity of the compound of the present invention to inhibit the IL-2-dependent growth reaction of human PBMC, which is caused by JAK3, was measured (Arthritis Rheum. 2010; 62(8): 2283-93).
Using a medium comprising 10 μg/mL PHA-M (Sigma) (which is RPMI-1640 (Sigma) comprising 10% human serum type AB (MP Biomedicals)), human PBMC (C.T.L.) (cell density: 1×10^6 cells/mL) was cultured at 37° C. in a culture vessel comprising 5% carbon dioxide for 3 days. Thereafter, the culture was washed with RPMI-1640 four times, and a medium (RPMI-1640 comprising 10% human serum type AB) was then added to the resultant culture to prepare a cell suspension. The cells (1×10^4 cells per well) and the serially diluted compound of the present invention were added to each well of a 96-well U-bottom microplate, and the thus obtained mixture was then cultured at 37° C. in a culture vessel comprising 5% carbon dioxide for 30 minutes. After completion of the culture, recombinant human IL-2 (Peprotech) was added to the culture to a final concentration of 2 ng/mL, and the obtained mixture was then stirred at 37° C. in a culture vessel comprising 5% carbon dioxide for 2 days (1×10^4 cells/100 μl/each well). After completion of the culture, the resultant was left at a room temperature for 30 minutes, and 100 μl of CellTiter-Glo Luminescent Cell Viability Assay (Promega) was then added to the resultant, followed by stirring it. Thereafter, the reaction mixture was left for 10 minutes, and the amount of a luminescence derived from living cells in each well was then measured using a microplate reader (TECAN). The inhibition rate of the present compound to the cell growth caused by IL-2 stimulation was calculated, and the concentration of the compound capable of inhibiting 50% of the cell growth was defined as an IC50 value (nM).

purified recombinant human JAK3 protein, sequence (P52333 whole entry): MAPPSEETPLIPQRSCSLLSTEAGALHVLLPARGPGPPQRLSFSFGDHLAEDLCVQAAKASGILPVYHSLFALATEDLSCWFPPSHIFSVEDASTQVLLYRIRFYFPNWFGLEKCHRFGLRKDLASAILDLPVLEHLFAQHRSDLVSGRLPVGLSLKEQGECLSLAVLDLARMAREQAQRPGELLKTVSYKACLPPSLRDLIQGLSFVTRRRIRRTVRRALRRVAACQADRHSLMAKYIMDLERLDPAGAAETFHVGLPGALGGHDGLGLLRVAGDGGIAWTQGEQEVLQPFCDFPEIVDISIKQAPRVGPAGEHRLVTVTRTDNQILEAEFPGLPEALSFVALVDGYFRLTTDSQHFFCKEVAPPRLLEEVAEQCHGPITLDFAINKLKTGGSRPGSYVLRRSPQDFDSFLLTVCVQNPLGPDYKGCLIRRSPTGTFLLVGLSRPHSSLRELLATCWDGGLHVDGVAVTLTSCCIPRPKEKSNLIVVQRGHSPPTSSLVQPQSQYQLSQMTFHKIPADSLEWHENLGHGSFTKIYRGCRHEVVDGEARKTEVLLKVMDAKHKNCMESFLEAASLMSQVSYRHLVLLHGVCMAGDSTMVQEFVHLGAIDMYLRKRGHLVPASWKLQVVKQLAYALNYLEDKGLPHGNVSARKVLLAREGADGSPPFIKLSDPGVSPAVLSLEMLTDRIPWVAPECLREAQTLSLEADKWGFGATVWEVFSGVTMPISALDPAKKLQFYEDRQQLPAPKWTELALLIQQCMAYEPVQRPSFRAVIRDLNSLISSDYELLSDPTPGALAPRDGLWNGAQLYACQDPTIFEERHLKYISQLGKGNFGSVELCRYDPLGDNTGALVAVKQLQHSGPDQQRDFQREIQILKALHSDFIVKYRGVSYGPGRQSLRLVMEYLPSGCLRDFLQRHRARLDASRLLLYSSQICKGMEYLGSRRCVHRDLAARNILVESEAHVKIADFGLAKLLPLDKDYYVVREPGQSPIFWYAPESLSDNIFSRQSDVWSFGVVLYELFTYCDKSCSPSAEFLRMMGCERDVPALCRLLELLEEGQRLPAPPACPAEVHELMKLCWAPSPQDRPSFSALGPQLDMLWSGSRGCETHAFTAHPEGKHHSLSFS

Row | IC50 [1] [nM] | IC50 [2] [nM] | JAK3-inhibiting activity attenuated in comparison to the compound of the present invention ([1]; in terms of IC50 value) [times] | IC50 [3] [nM] | selectivity to JAK3 versus JAK1 or JAK2 ([1]; in terms of IC50 value) | Compound | IC50 (human PBMC) [nM]
1 | 0.68 | 660 |  |  |  | C=CC(=O)NC1C=C(c2ncnc3[nH]cc(-c4ccccc4)c23)CC1 (stereo not shown) [Compound 10, N-(3-(5-Phenyl-7H-pyrrolo[2,3-d]pyrimidin-4-yl)cyclopent-2-en-1-yl)acrylamide] | 
2 | 44 |  | ≥ 20 | 880 |  | C=C(C)C(=O)NC1CCC=C(c2ncnc3[nH]cc(-c4ccccc4)c23)C1 (stereo not shown) [Comparative Example 1, N-(3-(5-Phenyl-7H-pyrrolo[2,3-d]pyrimidin-4-yl)cyclohex-3-en-1-yl)methacrylamide, reference compound] | 
3 | 19 | 880 |  | > 10000 |  | C=CC(=O)N[C@H]1CCC[C@H](c2ncnc3[nH]cc(-c4ccco4)c23)C1 [Comparative Example 11(b), N-((1S,3S)-3-(5-(Furan-2-yl)-7H-pyrrolo[2,3-d]pyrimidin-4-yl)cyclohexyl)acrylamide, reference compound] | 1940
4 | 0.35 | 870 |  | 3200 |  | C=CC(=O)NC1C=C(c2ncnc3[nH]cc(-c4ccccc4)c23)CCC1 (stereo not shown) [Compound 12, N-(3-(5-Phenyl-7H-pyrrolo[2,3-d]pyrimidin-4-yl)cyclohex-2-en-1-yl)acrylamide] | 
5 | < 0.3 | 330 |  | 440 |  | C=CC(=O)N[C@H]1CCC=C(c2ncnc3[nH]cc(-c4ccco4)c23)C1 [Compound 7, (S)—N-(3-(5-(Furan-2-yl)-7H-pyrrolo[2,3-d]pyrimidin-4-yl)cyclohex-3-en-1-yl)acrylamide] | 18
6 | 21.4 | > 10000 | ≥ 20 |  |  | C=CC(=O)NC1CCC=C(c2ncnc3[nH]cc(-c4ncccn4)c23)C1 (stereo not shown) [Comparative Example 8, N-(3-(5-(Pyrimidin-2-yl)-7H-pyrrolo[2,3-d]pyrimidin-4-yl)cyclohex-3-en-1-yl)acrylamide, reference compound] | 
7 | 27 |  | ≥ 20 | 730 |  | C/C=C/C(=O)NC1CCC=C(c2ncnc3[nH]cc(-c4ccccc4)c23)C1 (stereo not shown) [Comparative Example 2, (E)-N-(3-(5-Phenyl-7H-pyrrolo[2,3-d]pyrimidin-4-yl)cyclohex-3-en-1-yl)but-2-enamide, reference compound] | 
8 | < 0.3 | 880 |  | 2100 |  | C=CC(=O)NC1CC=C(c2ncnc3[nH]cc(-c4ccccc4)c23)C1 (stereo not shown) [Compound 9, N-(3-(5-Phenyl-7H-pyrrolo[2,3-d]pyrimidin-4-yl)cyclopent-3-en-1-yl)acrylamide] | 99
9 | < 0.3 | 430 |  | 1400 |  | C=CC(=O)NC1CC=C(c2ncnc3[nH]cc(-c4ccco4)c23)C1 (stereo not shown) [Compound 8, N-(3-(5-(Furan-2-yl)-7H-pyrrolo[2,3-d]pyrimidin-4-yl)cyclopent-3-en-1-yl)acrylamide] | 83
10 | 0.33 | 450 |  | 2600 |  | C=CC(=O)NC1C=C(c2ncnc3[nH]cc(-c4ccco4)c23)CCC1 (stereo not shown) [Compound 15, N-(3-(5-(Furan-2-yl)-7H-pyrrolo[2,3-d]pyrimidin-4-yl)cyclohex-2-en-1-yl)acrylamide] | 
11 |  |  |  |  |  | C=CC(=O)NC1CCC=C(c2ncnc3[nH]cc(-c4ccc(C)cc4)c23)C1 (stereo not shown) [Comparative Example 4, N-(3-(5-(p-Tolyl)-7H-pyrrolo[2,3-d]pyrimidin-4-yl)cyclohex-3-en-1-yl)acrylamide, reference compound] | > 1000
12 | < 0.3 | 850 |  | 1500 |  | C=CC(=O)NC1CCC=C(c2ncnc3[nH]cc(-c4ccsc4)c23)C1 (stereo not shown) [Compound 3, N-(3-(5-(Thiophen-3-yl)-7H-pyrrolo[2,3-d]pyrimidin-4-yl)cyclohex-3-en-1-yl)acrylamide] | 
13 |  |  |  |  |  | C=CC(=O)NC1CCC=C(c2ncnc3[nH]cc(-c4cc5ccccc5o4)c23)C1 (stereo not shown) [Comparative Example 9, N-(3-(5-(Benzofuran-2-yl)-7H-pyrrolo[2,3-d]pyrimidin-4-yl)cyclohex-3-en-1-yl)acrylamide, reference compound] | > 1000
14 | < 0.3 | 470 |  | 880 |  | C=CC(=O)NC1CCC=C(c2ncnc3[nH]cc(-c4ccccc4)c23)C1 (stereo not shown) [Compound 1, N-(3-(5-phenyl-7H-pyrrolo[2,3-d]pyrimidin-4-yl)cyclohex-3-en-1-yl)acrylamide] | 
15 | 0.77 | 1000 |  | 4900 |  | C=CC(=O)NC1C=C(c2ncnc3[nH]cc(-c4ccoc4)c23)CCC1 (stereo not shown) [Compound 16, N-(3-(5-(Furan-3-yl)-7H-pyrrolo[2,3-d]pyrimidin-4-yl)cyclohex-2-en-1-yl)acrylamide] | 
16 | 125 | 166 | ≥ 100 | 414 | not observed | C1=C(c2ncnc3[nH]ccc23)CCCC1 [Comparative Example 10, 4-(Cyclohex-1-en-1-yl)-7H-pyrrolo[2,3-d]pyrimidine, reference compound] | 
17 | 0.42 | 1300 |  | 2900 |  | C=CC(=O)NC1CCC=C(c2ncnc3[nH]cc(-c4ccoc4)c23)C1 (stereo not shown) [Compound 4, N-(3-(5-(Furan-3-yl)-7H-pyrrolo[2,3-d]pyrimidin-4-yl)cyclohex-3-en-1-yl)acrylamide] | 
